Results from publication doi:10.1101/2025.07.20.665728 (bioRxiv, 2025).
Values belong to the compound of their own block, whether it stands above or below them.

Legend:
C1R.MR1 cells [1] = assay: Cell surface MR1 quantification by flow cytometry, C1R.MR1; format: cell-based; conditions: for MR1 cell surface expression: 1–200 μM
Description: Next, we investigated whether these RF catabolites can impact MR1 cell surface expression in both MR1-transduced B cell lymphoblastoid (C1R.MR1) and monocytic (THP-1.MR1) cell lines (Fig. 2). Here, the cells were pulsed with 1–200 μM of RF or the RF catabolites, and the cell surface levels of MR1 were quantified by flow cytometry ([Awad et al., 2020a]; [Keller et al., 2017]). Cell viability was unaffected, even at highest concentrations of the catabolites, as depicted in Fig. S2A. […] No impact on the MR1 surface level was observed when the parental C1R cells were incubated with these RF catabolites, probably due to the low basal surface MR1 level whose further reduction becomes undetectable by the anti-MR1 antibody (Fig. S2B). The MR1 downregulation seen in C1R.MR1 cells was specific to MR1 as the level of HLA-A*02:01 was not affected after pulsing C1R-A2 with the ligands (Fig. S2C). […] This MR1 downregulation varied between cell types, with a higher extent observed in THP-1.MR1 than C1R.MR1, and was seen after staining with both two conformational anti-MR1 8F2F9 and 26.5 antibodies (clones 8F2F9 and 26.5; Fig. 2G).
The level of MR1 expressed on the cell surface was measured after the exposure to the investigated ligands as previously described ([Awad et al., 2020a]; [Wang et al., 2022a]). C1R antigen presenting B lymphocytes overexpressing MR1*01 (C1R.MR1), MR1^K43A mutant (C1R.MR1^K43A), MR1^R9H mutant (C1R.MR1^R9H) or HLA-A*02:01 (C1R-A2), in addition to the monocytic THP-1-MR1 cells, were used in this study. 2 x 10^5 cells were incubated with RF catabolites for 3 or 16 h at 37° C and 5% CO2 in 200 μl folate-free RPMI 1640 medium from Gibco (Cat. No. 11875-093) fortified with 10% fetal bovine serum (FBS), sodium pyruvate (1 mmol/L), Hepes buffer (15 mmol/L), pH 7.2 to 7.5, 2% penicillin (100 U/ml), streptomycin ([…]), glutamax (2 mmol/L), nonessential amino acids (0.1 mmol/L) (all from ThermoFisher, Life Technologies), and 2-mercaptoethanol ([…], Sigma) (RF-10). After incubation, the cells were first stained with Zombie Aqua Fixable Viability Kit from BioLegend (Cat. No. 423102) and then incubated with biotinylated 8F2F9 αMR1 antibody for 30 minutes on ice. The unbound antibody was then washed off with 2% fetal bovine serum/PBS. The cells were finally incubated with PE-conjugated streptavidin (BioLegend, 30 μg/ml) and then washed with 2% fetal bovine serum/PBS. The PE fluorescence intensity reflects the surface MR1 level. The data was acquired with an LSRFortessa X-20 (BD Biosciences) and Diva software (BD Biosciences) and analyzed using FlowJo software (BD Biosciences).

[2] = system: SKW-3 cells expressing AF-7 (TRAV1-2/TRBV6-1) TCR; assay: MAIT cell activation assay, SKW-3 AF-7 TCR co-cultured with C1R.MR1; format: cell-based; conditions: for 5-OP-RU-induced activation (CD69): SKW-3 AF-7, in presence of 1 nM 5-OP-RU; for CD69 surface expression (activation): SKW-3 AF-7, ligand alone
Description: (§1) Next, we explored whether RF catabolites could activate SKW-3 cells expressing two different MAIT TCRs. Distinct responses of T cells expressing TCRs with varying TRBV chain usage reinforces the role of Vβ in modulating MAIT responses to various ligands ([Chancellor et al., 2023]; [Gherardin et al., 2016]; [Seneviratna et al., 2022]).The surface expression of CD69 was measured as a marker for activation of cells expressing the AF-7 (TRAV1-2/TRBV6-1) or MBV28 (TRAV1-2/TRBV28) TCRs after co-culture with C1R.MR1 cells and the ligands.
(§2) C1R.MR1 cells (1 x 10^5) were initially stained with CTV for 15 minutes and then incubated with RF catabolites for 20 h. […] Cells were subsequently stained with PE-Cy7-conjugated anti-CD69 (BD; 1:100) and PE-labelled anti-MR1 (26.5 clone; BD; 1:100), before analysis on LSRFortessa (BD Biosciences) flow cytometer. Activation of SKW-3-MAIT cells was reflected by the cell-surface CD69 expression.

C1R.MR1 cells [3] = assay: Competition with Ac-6-FP/5-OP-RU-induced MR1 upregulation, C1R.MR1; format: cell-based; conditions: for reduction of Ac-6-FP response: 200 μM (highest concentration), overnight, cell line not given
[4] = target: T1, human MR1-β2-microglobulin (β2m) complex (Homo sapiens, UniProt Q95460); assay: In vitro refolding of MR1-β2m co-complex with ligand; format: binding; conditions: ligand added to refolding buffer
T1 construct: plasmids encoding for the extracellular domains of MR1, β2m, and the AF-7 TCRα and TCRβ chains; made in house
Excerpt: We then assessed the capacity of RF and its catabolites to be loaded within recombinant MR1. The human MR1-β2-microglobulin (β2m) complex can only co-purify when the MR1 Ag-binding pocket is occupied with ligand ([Kjer-Nielsen et al., 2012]). […] Next, we examined how these catabolites could stabilize MR1 using an in vitro MR1-Ag complexes through thermostability assay ([Eckle et al., 2014]) (Fig. 1H). Here, the half-maximum melting temperatures (Tm50) of the stable complexes MR1-5-OP-RU and MR1-Ac-6-FP were 58.65 ± 0.42 and 62.12 ± 0.37 °C; respectively, consistent with previous values ([Eckle et al., 2014]). […] Thus, the binding of these ligands stabilizes the MR1 protein but to a lower extent in comparison to MR1-5-OP-RU and MR1-Ac-6-FP (Fig. 1H).
Escherichia coli BL21(DE3) cells were transformed with plasmids encoding for the extracellular domains of MR1, β2m, and the AF-7 TCRα and TCRβ chains ([Kjer-Nielsen et al., 2012]; [Patel et al., 2013]; [Wang et al., 2022a]). The proteins were then expressed, and the inclusion bodies were purified, cleaned, and used for refolding. For both MR1 and AF-7 TCR, inclusion bodies were refolded through rapid dilution overnight as previously mentioned ([Keller et al., 2017]). To refold MR1 with ligands, 58 mg MR1 inclusion bodies along with 30 mg of β2m inclusion bodies were placed in a 500 ml of refold buffer consisting of 0.1 M Tris pH 8.0, 5 M of urea, 2 mM EDTA, 2.5 mM oxidized glutathione, 20 mM reduced glutathione and 0.4 M of L-arginine for 16 h at 4° C. Ligands were dissolved in dilute NaOH and added directly into the refolding buffer. […] The refolded MR1-ligand complex was dialyzed against 10 mM Tris pH 8.0 overnight and purified using size-exclusion (Superdex 200, GE Healthcare) and anion-exchange (HiTrapQ, GE Healthcare) chromatography techniques ([Awad et al., 2020a]).

[5] = system: SKW-3 cells expressing MBV28 (TRAV1-2/TRBV28) TCR; assay: MAIT cell activation assay, SKW-3 MBV28 TCR co-cultured with C1R.MR1; format: cell-based; conditions: for 5-OP-RU-induced activation (CD69): SKW-3 MBV28, in presence of 1 nM 5-OP-RU
Description: as §1, §2

folding of the MR1-β2m co-complex in solution [4]: facilitated the correct folding
Compound: Cc1cc2nc3[nH]c(=O)[nH]c(=O)c3nc2cc1C [Lumichrome, 7,8-dimethylalloxazine]
MR1 cell surface expression (C1R.MR1 cells [1]; C1R.MR1, 3 h): reduced MR1 cell surface
rank as down-regulator of MR1 cell surface expression (C1R.MR1 cells [1]; overall, C1R.MR1 and THP-1.MR1): most potent down-regulator
5-OP-RU-induced activation (CD69) [2]: enhanced the 5-OP-RU-induced CD69 expression
CD69 surface expression (activation) [2]: minor reductions in CD69
MR1 expression on C1R.MR1 in co-culture ([2]; SKW-3 AF-7 co-culture with 5-OP-RU): dose-dependent reduction in MR1 expression
reduction of Ac-6-FP response (C1R.MR1 cells [3]; then 10 μM Ac-6-FP 3 h): more than 80%
5-OP-RU-induced activation (CD69) [5]: enhanced the 5-OP-RU-induced CD69 expression
CD69 surface expression (activation) ([5]; SKW-3 MBV28, ligand alone): minor reductions in CD69
MR1 expression on C1R.MR1 in co-culture ([5]; SKW-3 MBV28 co-culture with 5-OP-RU): dose-dependent reduction in MR1 expression

Compound: Cc1cc2nc3c(=O)[nH]c(=O)nc-3n(C)c2cc1C [Lumiflavin]
5-OP-RU-induced activation (CD69) [2]: slightly exaggerated
CD69 surface expression (activation) [2]: minor increase in CD69
reduction of Ac-6-FP response (C1R.MR1 cells [3]; then 10 μM Ac-6-FP 3 h): more than 80%
folding of the MR1-β2m co-complex in solution [4]: facilitated the correct folding

folding of the MR1-β2m co-complex in solution [4]: did not sponsor refolding
Compound: Cc1cc2nc3c(=O)[nH]c(=O)nc-3n(C[C@H](O)[C@H](O)[C@H](O)CO)c2cc1C [RF, Riboflavin]
MR1 cell surface expression (C1R.MR1 cells [1]; C1R.MR1, 3 h): did not alter MR1 expression from the baseline
MR1 cell surface expression (C1R.MR1 cells [1]; C1R.MR1, 16 h): modestly upregulated MR1
5-OP-RU-induced activation (CD69) [2]: could not compete with 5-OP-RU
CD69 surface expression (activation) [2]: minor increase in CD69
effect on Ac-6-FP-induced cell surface upregulation of MR1 (C1R.MR1 cells [3]; C1R.MR1, 1–200 μM overnight, then 10 μM Ac-6-FP 3 h): did not modulate
effect on 5-OP-RU-induced cell surface upregulation of MR1 (C1R.MR1 cells [3]; C1R.MR1, 1–200 μM overnight, then 5-OP-RU 3 h): did not modulate
5-OP-RU-induced activation (CD69) [5]: could not compete with 5-OP-RU

folding of the MR1-β2m co-complex in solution [4]: facilitated the correct folding
Compound: O=c1nc2[nH]c3ccccc3nc-2c(=O)[nH]1 [Alloxazine, alloxazine]
MR1 cell surface expression (C1R.MR1 cells [1]; C1R.MR1, 3 h): reduced MR1 cell surface
reduction of Ac-6-FP response (C1R.MR1 cells [3]; then 10 μM Ac-6-FP 3 h): more than 80%
5-OP-RU-induced activation (CD69) [5]: could interfere with the 5-OP-RU-induced activation of MBV28 in a dose-dependent manner
